From PubChem BioAssay AID248 (DTP/NCI, 2004)
Values joined by “and” are separate entries in the source; they are usually repeats but may differ in a detail not shown here. Equal entries are not always repeated. Toxic doses and inconclusive results are not listed.

Test system: L1210 leukemia ip in BDF1 mice, survival T/C
Assay: NCI In Vivo Anticancer Drug Screen. Data for tumor model L1210 Leukemia (intraperitoneal) in B6D2F1 (BDF1) mice
Settings: endpoint: mean survival time, higher = longer survival
Procedure, shortened: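 Tumor cells were implanted, animals were treated, and survival was followed. The result divides the treated measurement by the vehicle-control measurement.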

In the case of `[N-]=[N+]=CC(=O)NCC(=O)NN`, the T/C (dose: 50.0 mg/kg/injection, schedule: Q01DX Z (sc), vehicle: steriod suspending solution) is reported as 101 % of control, the T/C (dose: 50.0 mg/kg/injection, schedule: Q02DX Z (ip), vehicle: saline) is reported as 102 % of control and the T/C (dose: 50.0 mg/kg/injection, schedule: Q03DX Z (ip), vehicle: saline) is reported as 101 % of control. The T/C (dose: 100.0 mg/kg/injection, schedule: Q01DX001 (ip), vehicle: saline) was 108 % of control, the T/C (dose: 100.0 mg/kg/injection, schedule: Q01DX005 (ip), vehicle: other) was 114 % of control and the T/C (dose: 100.0 mg/kg/injection, schedule: Q01DX009 (ip), vehicle: other) was 115 % of control. For the same compound, the T/C (dose: 100.0 mg/kg/injection, schedule: Q01DX009 (ip), vehicle: saline) was 119 % of control, the T/C (dose: 100.0 mg/kg/injection, schedule: Q01DX Z (sc), vehicle: steriod suspending solution) was 101 % of control and the T/C (dose: 100.0 mg/kg/injection, schedule: Q02DX Z (ip), vehicle: saline) was 108 % of control. For the same compound, the T/C (dose: 100.0 mg/kg/injection, schedule: Q03DX Z (ip), vehicle: saline) was 108 % of control, the T/C (dose: 100.0 mg/kg/injection, schedule: Q## X008 (ip), vehicle: water) was 98 % of control and the T/C (dose: 125.0 mg/kg/injection, schedule: Q01DX006 (iv), vehicle: saline) was 98 % of control. For the same compound, the T/C (dose: 125.0 mg/kg/injection, schedule: Q01DX009 (ip), vehicle: other) was 118 % of control, the T/C (dose: 125.0 mg/kg/injection, schedule: Q01DX009 (sc), vehicle: other) was 100 % of control and the T/C (dose: 125.0 mg/kg/injection, schedule: Q01DX017 (ip), vehicle: saline) was 121 % of control. The T/C (dose: 125.0 mg/kg/injection, schedule: Q01DX Z (ip), vehicle: other) was 116 % of control, the T/C (dose: 200.0 mg/kg/injection, schedule: Q01DX001 (ip), vehicle: saline) was 110 % of control and the T/C (dose: 200.0 mg/kg/injection, schedule: Q01DX Z (ip), vehicle: water) was 124 % of control. For the same compound, the T/C (dose: 200.0 mg/kg/injection, schedule: Q01DX Z (sc), vehicle: steriod suspending solution) was 98 % of control, the T/C (dose: 200.0 mg/kg/injection, schedule: Q03DX Z (ip), vehicle: saline) was 154 % of control and the T/C (dose: 200.0 mg/kg/injection, schedule: Q## X008 (ip), vehicle: water) was 98 % of control. The T/C (dose: 225.0 mg/kg/injection, schedule: Q01DX Z (ip), vehicle: saline) was 124 % of control, the T/C (dose: 225.0 mg/kg/injection, schedule: Q01DX Z (ip), vehicle: water) was 121 % of control and the T/C (dose: 250.0 mg/kg/injection, schedule: Q01DX006 (iv), vehicle: saline) was 106 % of control. The T/C (dose: 250.0 mg/kg/injection, schedule: Q01DX009 (ip), vehicle: other) was 156 % of control, the T/C (dose: 250.0 mg/kg/injection, schedule: Q01DX009 (sc), vehicle: other) was 108 % of control and the T/C (dose: 250.0 mg/kg/injection, schedule: Q01DX017 (ip), vehicle: saline) was 124 % of control. The T/C (dose: 250.0 mg/kg/injection, schedule: Q01DX Z (ip), vehicle: other) was 123 % of control, the T/C (dose: 250.0 mg/kg/injection, schedule: Q02DX005 (ip), vehicle: saline) was 121 % of control and the T/C (dose: 250.0 mg/kg/injection, schedule: Q04DX003 (ip), vehicle: saline) was 110 % of control. The T/C (dose: 250.0 mg/kg/injection, schedule: Q08DX002 (ip), vehicle: other) was 112 % of control, the T/C (dose: 250.0 mg/kg/injection, schedule: Q## X005 (ip), vehicle: saline) was 111 % of control and the T/C (dose: 300.0 mg/kg/injection, schedule: Q01DX009 (sc), vehicle: other) was 118 % of control. The T/C (dose: 375.0 mg/kg/injection, schedule: Q01DX Z (ip), vehicle: other) was 160 % of control, the T/C (dose: 400.0 mg/kg/injection, schedule: Q01DX001 (ip), vehicle: saline) was 106 % of control and the T/C (dose: 400.0 mg/kg/injection, schedule: Q01DX005 (ip), vehicle: other) was 150 % of control. The T/C (dose: 400.0 mg/kg/injection, schedule: Q01DX009 (ip), vehicle: saline) was 156 % of control, the T/C (dose: 400.0 mg/kg/injection, schedule: Q01DX Z (im), vehicle: other) was 112 % of control and the T/C (dose: 400.0 mg/kg/injection, schedule: Q01DX Z (ip), vehicle: other) was 157 % of control. For the same compound, the T/C (dose: 400.0 mg/kg/injection, schedule: Q01DX Z (oral), vehicle: other) was 102 % of control, the T/C (dose: 400.0 mg/kg/injection, schedule: Q01DX Z (oral), vehicle: saline) was 116 % of control and the T/C (dose: 400.0 mg/kg/injection, schedule: Q## X008 (ip), vehicle: water) was 103 % of control. The T/C (dose: 500.0 mg/kg/injection, schedule: Q01DX001 (ip), vehicle: saline) was 111 % of control and 117 % of control, the T/C (dose: 500.0 mg/kg/injection, schedule: Q01DX006 (iv), vehicle: saline) was 110 % of control and the T/C (dose: 500.0 mg/kg/injection, schedule: Q01DX009 (sc), vehicle: other) was 118 % of control. For the same compound, the T/C (dose: 500.0 mg/kg/injection, schedule: Q01DX Z (ip), vehicle: other) was 118 % of control and 124 % of control, the T/C (dose: 500.0 mg/kg/injection, schedule: Q01DX Z (ip), vehicle: water) was 90 % of control and the T/C (dose: 500.0 mg/kg/injection, schedule: Q## X005 (ip), vehicle: saline) was 114 % of control. For the same compound, the T/C (dose: 500.0 mg/kg/injection, schedule: Q## X024 (ip), vehicle: water) was 112 % of control, the T/C (dose: 600.0 mg/kg/injection, schedule: Q01DX009 (ip), vehicle: saline) was 117 % of control and the T/C (dose: 600.0 mg/kg/injection, schedule: Q01DX Z (im), vehicle: other) was 120 % of control. For the same compound, the T/C (dose: 600.0 mg/kg/injection, schedule: Q01DX Z (ip), vehicle: water) was 150 % of control, the T/C (dose: 600.0 mg/kg/injection, schedule: Q01DX Z (sc), vehicle: other) was 115 % of control and the T/C (dose: 600.0 mg/kg/injection, schedule: Q## X008 (ip), vehicle: water) was 109 % of control. The T/C (dose: 750.0 mg/kg/injection, schedule: Q01DX009 (sc), vehicle: other) was 118 % of control, the T/C (dose: 750.0 mg/kg/injection, schedule: Q01DX Z (ip), vehicle: other) was 123 % of control and the T/C (dose: 800.0 mg/kg/injection, schedule: Q01DX Z (im), vehicle: other) was 101 % of control. The T/C (dose: 800.0 mg/kg/injection, schedule: Q01DX Z (ip), vehicle: other) was 124 % of control, the T/C (dose: 800.0 mg/kg/injection, schedule: Q01DX Z (oral), vehicle: other) was 117 % of control and the T/C (dose: 800.0 mg/kg/injection, schedule: Q01DX Z (oral), vehicle: saline) was 122 % of control. For the same compound, the T/C (dose: 800.0 mg/kg/injection, schedule: Q01DX Z (sc), vehicle: other) was 91 % of control, the T/C (dose: 800.0 mg/kg/injection, schedule: Q02DX005 (ip), vehicle: saline) was 183 % of control and the T/C (dose: 800.0 mg/kg/injection, schedule: Q02DX Z (ip), vehicle: other) was 182 % of control. For the same compound, the T/C (dose: 800.0 mg/kg/injection, schedule: Q03DX Z (ip), vehicle: other) was 150 % of control, the T/C (dose: 1000.0 mg/kg/injection, schedule: Q01DX001 (ip), vehicle: saline) was 115 % of control and the T/C (dose: 1000.0 mg/kg/injection, schedule: Q01DX001 (sc), vehicle: other) was 108 % of control. For the same compound, the T/C (dose: 1000.0 mg/kg/injection, schedule: Q01DX006 (iv), vehicle: saline) was 109 % of control, the T/C (dose: 1000.0 mg/kg/injection, schedule: Q01DX Z (ip), vehicle: other) was 100 % of control and the T/C (dose: 1000.0 mg/kg/injection, schedule: Q02DX009 (ip), vehicle: saline) was 119 % of control. For the same compound, the T/C (dose: 1000.0 mg/kg/injection, schedule: Q04DX003 (ip), vehicle: other) was 162 % of control, the T/C (dose: 1000.0 mg/kg/injection, schedule: Q04DX003 (ip), vehicle: saline) was 156 % of control and the T/C (dose: 1000.0 mg/kg/injection, schedule: Q## X005 (ip), vehicle: saline) was 158 % of control. For the same compound, the T/C (dose: 1200.0 mg/kg/injection, schedule: Q02DX Z (ip), vehicle: other) was 98 % of control, the T/C (dose: 1200.0 mg/kg/injection, schedule: Q03DX Z (ip), vehicle: other) was 156 % of control and the T/C (dose: 1250.0 mg/kg/injection, schedule: Q03HX016 (ip), vehicle: saline) was 105 % of control. For the same compound, the T/C (dose: 1500.0 mg/kg/injection, schedule: Q01DX001 (ip), vehicle: other) was 150 % of control, the T/C (dose: 1500.0 mg/kg/injection, schedule: Q01DX001 (ip), vehicle: saline) was 150 % of control and the T/C (dose: 1500.0 mg/kg/injection, schedule: Q01DX001 (sc), vehicle: other) was 107 % of control. The T/C (dose: 1500.0 mg/kg/injection, schedule: Q03HX016 (ip), vehicle: saline) was 96 % of control, the T/C (dose: 1500.0 mg/kg/injection, schedule: Q04DX003 (ip), vehicle: saline) was 180 % of control and the T/C (dose: 1500.0 mg/kg/injection, schedule: Q08DX002 (ip), vehicle: saline) was 164 % of control. For the same compound, the T/C (dose: 1500.0 mg/kg/injection, schedule: Q## X024 (ip), vehicle: water) was 154 % of control, the T/C (dose: 1600.0 mg/kg/injection, schedule: Q01DX Z (ip), vehicle: other) was 150 % of control and the T/C (dose: 1750.0 mg/kg/injection, schedule: Q03HX016 (ip), vehicle: saline) was 102 % of control. The T/C (dose: 2000.0 mg/kg/injection, schedule: Q01DX001 (ip), vehicle: other) was 168 % of control, the T/C (dose: 2000.0 mg/kg/injection, schedule: Q01DX001 (sc), vehicle: other) was 118 % of control and the T/C (dose: 2000.0 mg/kg/injection, schedule: Q03HX016 (ip), vehicle: saline) was 111 % of control. For the same compound, the T/C (dose: 2000.0 mg/kg/injection, schedule: Q## X005 (ip), vehicle: saline) was 104 % of control.
